According to PMC7758017 (Iranian Journal of Pharmaceutical Research : IJPR, 2020):
Read-outs that look alike come from different tables or passages of the source.

Legend:
[1] = human, 10 mg/day p.o., HPLC study, ref [7], cited from earlier work
in vivo [2] = conditions: male, Wistar, rat
Experimental: (§1) An analytical column (Waters Spherisorb S5 W (250 mm × 4.6 i.d.; 5 μm particle size)) with guard column (Waters Spherisorb S5 W (30 mm × 4.6 mm i.d.)) was used for the analysis. The mobile phase contained acetonitrile and 50 mM sodium dihydrogen phosphate (17:83; v/v). The pH was adjusted to 3.1 with phosphoric acid ([13]). The sample volume was 40 µL for plasma samples and 90 µL for brain-tissue samples. All chromatograms were obtained at a conditioned temperature (50 °C), and the flow rate was 1.3 mL/min ([13]).
(§2) Male adult Wistar rats (body weight 230 ± 30 g; Anlab Inc., Prague, Czech Republic) were used for pharmacokinetics study. The animals were kept under recommended conditions: standard laboratory food and tap water were available ad libitum. All experimental procedures and protocols were reviewed and approved by the Ethics Committee of the Faculty of Military Health Sciences, University of Defense, Hradec Kralove, Czech Republic. […] Blood samples were collected directly from the heart into heparinized 1.5 mL polythene tubes after 5, 15, 30, 45, 60, 120 and 240 min, and after 24 h (n = 6; six animals in each time interval). The samples were immediately centrifuged at 3000 ×g for 10 min (10 °C), and the plasma obtained was stored at −80 °C until analysis.
After perfusion, the skull was opened and the brain was checked visually and subsequently carefully removed; time intervals correspond with blood sampling (5, 15, 30, 45, 60, 120 and 240 min, and after 24 hours; n = 6; the same animals were used). All brains were stored at –80 °C until HPLC analysis ([15]).
Standard noncompartmental analysis was performed using Kinetica software, version 4.0 (InnaPhase Corporation, Thermo Fisher Scientific Inc., Waltham, MA, USA). Maximum concentration (Cmax) and the time to the maximum concentration (Tmax) were determined directly from the observed data. The area under the mean plasma concentration–time curve from zero up to infinity (AUCtotal) was determined as the sum of the AUC0–24 h and of the extrapolated part, i.e. the ratio of the concentration predicted at the time interval of 24 h and the terminal rate constant λz. The λz was estimated using linear regression of the log-transformed concentrations at interval from 45 min to 24 h plotted against time. The half-life was calculated as t1/2 = ln(2)/λz. Other statistical analysis was performed using GraphPad Prism, version 5.0 (GraphPad Software, San Diego, California, USA).
Brain tissues (whole brains) were mechanically crushed under liquid nitrogen. […] Eight-hundred microliter of supernatant was subjected to liquid-liquid extraction as previously described. All assessments were performed in triplicate.

[3] = test system: acetylcholinesterase (AChE); set-up: method as in PMID 10641971; conditions: long-lasting, pseudo-irreversible inhibitor; ref [10]; cited from earlier work
in vivo [4] = conditions: male, Wistar, rat, im
Experimental: as §1, §2
(§3) Standard noncompartmental analysis was performed using Kinetica software, version 4.0 (InnaPhase Corporation, Thermo Fisher Scientific Inc., Waltham, MA, USA). Maximum concentration (Cmax) and the time to the maximum concentration (Tmax) were determined directly from the observed data. The area under the mean plasma concentration–time curve from zero up to infinity (AUCtotal) was determined as the sum of the AUC0–24 h and of the extrapolated part, i.e. the ratio of the concentration predicted at the time interval of 24 h and the terminal rate constant λz. The λz was estimated using linear regression of the log-transformed concentrations at interval from 45 min to 24 h plotted against time. The half-life was calculated as t1/2 = ln(2)/λz. […]

[5] = Plasma pharmacokinetics after single i.m. injection in rats (HPLC-UV); conditions: male, Wistar, rat, in vivo, im
Experimental: as §1, §2, §3

COc1cc2c(cc1OC)C(=O)C(CC1CCN(Cc3ccccc3)CC1)C2 (stereo not drawn) [Donepezil]
CSF concentration ([1]; 12 h after application): 5.2 ng/mL
CSF concentration ([1]; after 24 h): 7.5 ng/mL

CCN(C)C(=O)Oc1cccc([C@H](C)N(C)C)c1 [Rivastigmine]
Kp at 0 min (in vivo [2]): 0
Kp at 5 min (in vivo [2]): 1.74
Kp at 15 min (in vivo [2]): 1.48
Kp at 30 min (in vivo [2]): 1.7
Kp at 45 min (in vivo [2]): 1.15
Kp at 60 min (in vivo [2]): 1.13
Kp at 120 min (in vivo [2]): 0.176
Kp at 240 min (in vivo [2]): 0
Kp at 24 h (in vivo [2]): 0
concentration at 0 min (in vivo [2]): 0 ng/mL
concentration at 5 min (in vivo [2]): 5.23 ± 0.76 ng/mL
concentration at 15 min (in vivo [2]): 4.92 ± 0.62 ng/mL
concentration at 30 min (in vivo [2]): 4.72 ± 0.51 ng/mL
concentration at 45 min (in vivo [2]): 2.73 ± 0.32 ng/mL
concentration at 60 min (in vivo [2]): 2.24 ± 0.22 ng/mL
concentration at 120 min (in vivo [2]): 0.03 ± 0.02 ng/mL
concentration at 240 min (in vivo [2]): 0 ng/mL
concentration at 24 h (in vivo [2]): 0 ng/mL
duration of AChE inhibition [3]: up to 10 h
CL/F (in vivo [4]): 690 ± 30 mL/min/kg
MRT (in vivo [4]): 43.4 min
Vd/F [5]: 19.8 ± 3.87 L/kg
